# Results published in patent US11793845B2, “Composition for ameliorating peripheral sensory neuropathy” (KINKI UNIVERSITY, priority 2016, dated 2023).
# Legend:
# [1] = tested on: Peripheral Sensory Neuropathy Induced by Paclitaxel in Mice; test: cold plate test, paclitaxel-induced peripheral sensory neuropathy; format: in vivo; settings: paclitaxel 6 mg/kg alone; Day 3
# Description: The effect of the Lentinus edodes mycelium extract on the paresthesia to cold stimulation was tested by performing the cold plate test. The mice in the three groups in the above (1) were put on a cold plate set to 10° C. and a response time for avoidance (a latency) was measured. The shorter latency means that the mouse avoids the cold stimulation of the cold plate more.
# In the present test, the mice were divided into four groups by a difference in test objects. As in Example 1, male Balb/c mice of 6 to 7 weeks old were used. The mice were divided into a total of four groups, a control group, a paclitaxel administration group, and two different paclitaxel and Lentinus edodes mycelium extract administration groups (paclitaxel+Lentinus edodes mycelium extract administration groups). […] Further, a group in which the Lentinus edodes mycelium extract was administered to each mouse once a day at a dose of 1 g/kg (hereinafter referred to as “1 g/kg administration group”) and a group in which the Lentinus edodes mycelium extract was administered to each mouse once a day at a dose of 2 g/kg (hereinafter referred to as “2 g/kg administration group”) were prepared.
# Evaluation was performed in the same manner as in the test with oxaliplatin. Referring to FIG. 4, the horizontal axis indicates the elapsed time after administration (days) and the vertical axis indicates the avoidance response time (seconds). Open circles with a solid line represent the control group. Filled circles with a solid line represent the group in which only paclitaxel was administered. Open squares with a dash line and filled squares with a dash line represent the groups in which paclitaxel and the Lentinus edodes mycelium extract were administered at the same time (paclitaxel+Lentinus edodes mycelium extract administration groups). […] When the difference with the control group was determined to be significant using a significance level of 5%, the data were marked by “*”. […]
# [2] = tested on: Peripheral Sensory Neuropathy Induced by Paclitaxel in Mice; test: von Frey test, paclitaxel-induced peripheral sensory neuropathy; format: in vivo; settings: paclitaxel 6 mg/kg once a week alone, compared with control group; three days after the administration
# From the text: The mice in the three groups in the above (1) were put in a cage and a filament having a strength of 0.16 g was pressed on the plantar surface of the leg to measure the number of times (a score) of avoidance response.
# Male Balb/c mice of 6 to 7 weeks old were used as in Example 1. The mice were divided into three groups: a control group, a paclitaxel administration group, and a paclitaxel and Lentinus edodes mycelium extract administration group (paclitaxel+Lentinus edodes mycelium extract administration group). Paclitaxel was administered to each mouse once a day at a dose of 6 mg/kg. Further, the Lentinus edodes mycelium extract was administered to each mouse once a day at a dose of 2 g/kg.
# Further, the number of times of administration was set to once a week (on Day 0, Day 7, and Day 14) for paclitaxel and daily (from Day 0 to Day 15) for the Lentinus edodes mycelium extract in both the von Frey test and the cold plate test below.
# Evaluation was performed in the same manner as in the test with oxaliplatin. Referring to FIG. 3, the horizontal axis indicates an elapsed time after administration (days) and the vertical axis indicates the avoidance response (scores). Open circles with a solid line represent the control group. Filled circles with a solid line represent the group in which only paclitaxel was administered. Open squares with a dash line represent the group in which paclitaxel and the Lentinus edodes mycelium extract were administered (paclitaxel+Lentinus edodes mycelium extract administration group). When the difference with the control group was determined to be significant using a significance level of 5%, the data were marked by “*”.
# In the present test, the mice were divided into six groups by a difference in test objects. As in Example 1, male Balb/c mice of 6 to 7 weeks old were used. […]
smiles,measurement,setting,value
CC(=O)O[C@H]1C(=O)[C@@]2(C)[C@H]([C@H](OC(=O)c3ccccc3)[C@]3(O)C[C@H](OC(=O)[C@H](O)[C@@H](NC(=O)c4ccccc4)c4ccccc4)C(C)=C1C3(C)C)[C@]1(OC(C)=O)CO[C@@H]1C[C@@H]2O [paclitaxel],"latency to the cold stimulation (avoidance response time), cold plate test",[1],significantly reduced
same,"avoidance response (scores), von Frey test",[2],significantly increased
